Results reported in ChEMBL document CHEMBL5113530, “Butyrylation Meets Adipogenesis-Probed by a p300-Catalyzed Acylation-Specific Small Molecule Inhibitor: Implication in Anti-obesity Therapy” (J Med Chem, 2022).
Activity calls are given as the source filed them. The rule behind the calls is not given here.

Key:
[1] = Mutagenicity in Salmonella typhimurium TA98 assessed as number of revertants measured per plate at 10 to 1000 incubated for 48 hrs in absence of rat liver S9 fraction by plate incorporation assay; assay type: toxicity; conditions: salmonella enterica subsp. enterica serovar typhimurium, s9, 48 h, dose 10-1000 µg
[2] = Toxicity in male Sprague-Dawley rat assessed as average food intake at 500 mg/kg, po administered as single dose measured on day 7 (Rvb =20.24 g/day); assay type: organism-based; conditions: in vivo, 168 h, time 7 day
[3] = Toxicity in female Sprague-Dawley rat assessed as effect on body weight at 500 mg/kg, po administered as single dose measured on day 7 (Rvb =169.81 +/- 6.57 g); assay type: organism-based; conditions: in vivo, 168 h, time 7 day
[4] = Toxicity in female Sprague-Dawley rat assessed as average food intake at 1000 mg/kg, po administered as single dose measured on day 1 (Rvb =17.84 g/day); assay type: organism-based; conditions: in vivo, 24 h, time 1 day
[5] = Toxicity in male Sprague-Dawley rat assessed as average food intake at 250 mg/kg, po administered as single dose measured on day 1 (Rvb =20.38 g/day); assay type: organism-based; conditions: in vivo, 24 h, time 1 day
[6] = Toxicity in female Sprague-Dawley rat assessed as effect on body weight at 250 mg/kg, po administered as single dose measured on day 1 (Rvb =152.21 +/- 6.58 g); assay type: organism-based; conditions: in vivo, 24 h, time 1 day
Mus musculus [7] = assay: Anti-obesity activity in db/db mouse assessed as reduction in H4K5 butyrylation level in liver at 50 mg/kg, po qd administered for 30 days by DAPI staining based immunofluorescence microscopic analysis; assay type: functional, organism-based; conditions: time 30.0 day
Mus musculus [8] = assay: Anti-obesity activity in db/db mouse assessed as inhibition of slc2a4 expression at 50 mg/kg, po qd administered for 30 days by qRT-PCR analysis; assay type: functional, organism-based; conditions: time 30.0 day
[9] = Toxicity in male Sprague-Dawley rat assessed as average water intake measured per day at 500 mg/kg, po administered as single dose measured on day 1 (Rvb =32 ml/day); assay type: organism-based; conditions: in vivo, 24 h, time 1 day
[10] = Toxicity in male Sprague-Dawley rat assessed as average food intake at 1000 mg/kg, po administered as single dose measured on day 1 (Rvb =20.38 g/day); assay type: organism-based; conditions: in vivo, 24 h, time 1 day
[11] = Toxicity in male Sprague-Dawley rat assessed as effect on body weight at 250 mg/kg, po administered as single dose measured on day 14 (Rvb =231.13 +/- 18.38 g); assay type: organism-based; conditions: in vivo, 336 h, time 14 day
[12] = Toxicity in male Sprague-Dawley rat assessed as average food intake at 1000 mg/kg, po administered as single dose measured on day 7 (Rvb =20.24 g/day); assay type: organism-based; conditions: in vivo, 168 h, time 7 day
[13] = Toxicity in female Sprague-Dawley rat assessed as effect on body weight at 1000 mg/kg, po administered as single dose measured on day 1 (Rvb =152.21 +/- 6.58 g); assay type: organism-based; conditions: in vivo, 24 h, time 1 day
Mus musculus [14] = assay: Anti-obesity activity in db/db mouse assessed as reduction in hepatic steatosis at 50 mg/kg, po qd administered for 30 days by hematoxylin and eosin staining based assay; assay type: functional, organism-based; conditions: time 30.0 day
[15] = Toxicity in male Sprague-Dawley rat assessed as average water intake measured per day at 250 mg/kg, po administered as single dose measured on day 14 (Rvb =34 ml/day); assay type: organism-based; conditions: in vivo, 336 h, time 14 day
[16] = Toxicity in male Sprague-Dawley rat assessed as effect on body weight at 1000 mg/kg, po administered as single dose measured on day 1 (reference value: 174.75 +/- 7.61 g); assay type: organism-based; conditions: in vivo, 24 h, time 1 day
Mus musculus [17] = assay: Anti-obesity activity in db/db mouse assessed as reduction in H4K5 butyrylation level in epididymal fat pad at 50 mg/kg, po qd administered for 30 days by Immunoblotting analysis; assay type: functional, organism-based; conditions: time 30.0 day
[18] = Mutagenicity in Salmonella typhimurium TA102 assessed as number of revertants measured per plate at 10 to 1000 incubated for 48 hrs in presence of rat liver S9 fraction by plate incorporation assay; assay type: toxicity; conditions: salmonella enterica subsp. enterica serovar typhimurium, s9, 48 h, dose 10-1000 µg
[19] = Toxicity in female Sprague-Dawley rat assessed as effect on body weight at 1000 mg/kg, po administered as single dose measured on day 14 (Rvb =171.5 +/- 6.65 g); assay type: organism-based; conditions: in vivo, 336 h, time 14 day
[20] = tested on: Histone acetyltransferase p300 (Homo sapiens), Q09472 [C1438A]; assay: Inhibition of […] His-tagged EP300 C1438A mutant catalytic domain catalyzed acetylation (unknown origin) expressed in Escherichia coli BL21 (DE3) using Histone H3 as substrate at 25 uM preincubated with compound for 10 mins followed by acetyl-CoA addition and measured after 10 mins by Western blot analysis; conditions: time 20.0 min
Chain of Histone acetyltransferase p300 (Homo sapiens), Q09472 [C1438A] (Q09472 whole entry C1438A, the tested form may be a part): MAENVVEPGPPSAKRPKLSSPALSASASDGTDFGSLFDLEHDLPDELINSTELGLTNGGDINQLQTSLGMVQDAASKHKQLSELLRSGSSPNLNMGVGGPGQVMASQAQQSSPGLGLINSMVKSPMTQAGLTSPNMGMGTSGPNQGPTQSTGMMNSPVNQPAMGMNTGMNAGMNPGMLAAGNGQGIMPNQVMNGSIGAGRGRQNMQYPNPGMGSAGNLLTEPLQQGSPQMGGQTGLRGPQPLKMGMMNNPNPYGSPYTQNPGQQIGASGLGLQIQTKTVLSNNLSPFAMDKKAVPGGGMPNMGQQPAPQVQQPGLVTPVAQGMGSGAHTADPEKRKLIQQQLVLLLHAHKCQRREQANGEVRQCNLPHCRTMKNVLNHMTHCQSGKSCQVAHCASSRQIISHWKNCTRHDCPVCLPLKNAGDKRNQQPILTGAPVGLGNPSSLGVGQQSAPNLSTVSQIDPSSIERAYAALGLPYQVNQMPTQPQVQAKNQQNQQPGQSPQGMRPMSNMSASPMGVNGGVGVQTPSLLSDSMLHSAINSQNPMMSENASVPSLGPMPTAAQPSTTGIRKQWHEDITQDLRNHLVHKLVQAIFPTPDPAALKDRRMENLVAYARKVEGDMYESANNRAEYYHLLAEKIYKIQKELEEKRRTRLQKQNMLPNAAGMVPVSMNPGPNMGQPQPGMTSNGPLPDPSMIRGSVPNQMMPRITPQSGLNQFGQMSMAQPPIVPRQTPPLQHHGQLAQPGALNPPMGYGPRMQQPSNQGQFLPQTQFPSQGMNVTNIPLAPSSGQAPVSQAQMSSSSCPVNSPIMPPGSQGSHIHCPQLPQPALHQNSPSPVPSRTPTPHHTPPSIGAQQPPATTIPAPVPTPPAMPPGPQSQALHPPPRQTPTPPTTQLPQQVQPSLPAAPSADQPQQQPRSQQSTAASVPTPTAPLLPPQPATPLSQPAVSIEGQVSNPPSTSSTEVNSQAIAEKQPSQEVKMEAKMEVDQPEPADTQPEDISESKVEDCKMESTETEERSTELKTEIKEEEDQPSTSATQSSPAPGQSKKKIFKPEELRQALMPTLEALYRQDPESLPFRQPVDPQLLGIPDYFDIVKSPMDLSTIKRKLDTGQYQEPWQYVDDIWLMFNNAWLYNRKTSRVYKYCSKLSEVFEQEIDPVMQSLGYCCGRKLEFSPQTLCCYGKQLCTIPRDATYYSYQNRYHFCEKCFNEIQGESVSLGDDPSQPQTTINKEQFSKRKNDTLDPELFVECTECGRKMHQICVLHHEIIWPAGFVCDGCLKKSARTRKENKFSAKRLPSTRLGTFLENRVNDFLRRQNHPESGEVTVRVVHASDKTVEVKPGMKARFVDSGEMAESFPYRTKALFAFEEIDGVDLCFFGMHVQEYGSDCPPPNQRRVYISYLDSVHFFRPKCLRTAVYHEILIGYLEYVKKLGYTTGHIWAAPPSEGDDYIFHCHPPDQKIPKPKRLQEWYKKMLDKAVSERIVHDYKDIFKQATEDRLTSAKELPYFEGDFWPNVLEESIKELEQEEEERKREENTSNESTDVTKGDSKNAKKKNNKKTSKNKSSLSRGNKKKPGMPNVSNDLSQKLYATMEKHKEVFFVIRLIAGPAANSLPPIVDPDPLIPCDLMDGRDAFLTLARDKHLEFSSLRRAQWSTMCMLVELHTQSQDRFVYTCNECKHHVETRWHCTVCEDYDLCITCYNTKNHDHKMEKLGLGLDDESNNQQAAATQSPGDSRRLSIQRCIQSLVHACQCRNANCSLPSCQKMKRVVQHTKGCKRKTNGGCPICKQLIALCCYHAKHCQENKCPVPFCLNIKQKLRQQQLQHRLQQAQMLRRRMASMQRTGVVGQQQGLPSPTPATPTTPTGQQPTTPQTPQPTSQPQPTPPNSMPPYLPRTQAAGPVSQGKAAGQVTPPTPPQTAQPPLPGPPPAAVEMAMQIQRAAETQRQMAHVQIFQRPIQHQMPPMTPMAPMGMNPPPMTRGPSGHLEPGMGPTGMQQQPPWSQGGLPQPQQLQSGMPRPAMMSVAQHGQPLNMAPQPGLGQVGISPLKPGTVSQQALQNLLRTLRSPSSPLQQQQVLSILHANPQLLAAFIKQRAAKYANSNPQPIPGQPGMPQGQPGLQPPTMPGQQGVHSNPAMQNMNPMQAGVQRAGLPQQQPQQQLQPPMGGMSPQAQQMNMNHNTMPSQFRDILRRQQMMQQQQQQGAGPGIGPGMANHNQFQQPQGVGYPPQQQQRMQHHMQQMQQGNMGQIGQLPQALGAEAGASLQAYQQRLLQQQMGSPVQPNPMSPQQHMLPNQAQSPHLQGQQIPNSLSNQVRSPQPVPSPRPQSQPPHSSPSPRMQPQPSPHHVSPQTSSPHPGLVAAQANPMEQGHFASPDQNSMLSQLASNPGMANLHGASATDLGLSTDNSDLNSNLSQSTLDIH

3T3-L1 = assay: Anti-adipogenic activity against mouse 3T3-L1 cells assessed as downregulation of ACSS2 mRNA expression at 25 uM measured after 7 days by qRT-PCR analysis; assay type: functional, cell-based; conditions: time 7.0 day
Mus musculus [21] = assay: Anti-obesity activity in C57BL6/J mouse model of high fat diet-induced obesity assessed as reduction in hepatic steatosis at 50 mg/kg by hematoxylin and eosin staining based assay; assay type: functional, organism-based
[22] = Toxicity in female Sprague-Dawley rat assessed as average water intake measured per day at 500 mg/kg, po administered as single dose measured on day 14 (Rvb =26 ml/day); assay type: organism-based; conditions: in vivo, 336 h, time 14 day
Mus musculus [23] = assay: Anti-obesity activity in C57BL6/J mouse model of high fat diet-induced obesity assessed as reduction in H4K5 butyrylation level in epididymal fat pad at 50 mg/kg by Immunoblotting analysis; assay type: functional, organism-based
[24] = Mutagenicity in Salmonella typhimurium TA98 assessed as number of revertants measured per plate at 10 to 1000 incubated for 48 hrs in presence of rat liver S9 fraction by plate incorporation assay; assay type: toxicity; conditions: salmonella enterica subsp. enterica serovar typhimurium, s9, 48 h, dose 10-1000 µg
[25] = Toxicity in female Sprague-Dawley rat assessed as average food intake at 1000 mg/kg, po administered as single dose measured on day 7 (Rvb =15.65 g/day); assay type: organism-based; conditions: in vivo, 168 h, time 7 day
Mus musculus [26] = assay: Anti-obesity activity in db/db mouse assessed as reduction in adipocyte hypertrophy at 50 mg/kg, po qd administered for 30 days by hematoxylin and eosin staining based assay; assay type: functional, organism-based; conditions: time 30.0 day
[27] = Toxicity in male Sprague-Dawley rat assessed as average food intake at 250 mg/kg, po administered as single dose measured on day 7 (Rvb =20.24 g/day); assay type: organism-based; conditions: in vivo, 168 h, time 7 day
[28] = Toxicity in male Sprague-Dawley rat assessed as average water intake measured per day at 1000 mg/kg, po administered as single dose measured on day 7 (Rvb =30 ml/day); assay type: organism-based; conditions: in vivo, 168 h, time 7 day

Compound: COc1ccc(C(=O)C2=C3OC(C)(C)[C@@H](CC=C(C)C)C[C@@]34C[C@@H](CC=C(C)C)C(C)(C)[C@](CC=C(C)C)(C2=O)C4=O)cc1OC
- Activity [1]: Non-Toxic
- Activity [2]: 21.14 g/day
- Activity [3]: 176.55 g
- Activity [4]: 18.17 g/day
- Activity [5]: 20.03 g/day
- Activity [6]: 151.99 g
- Activity (Mus musculus [7]): Active
- Activity (Mus musculus [8]): Active
- Activity [9]: 36 mL
- Activity [10]: 20.76 g/day
- Activity [11]: 244.21 g
- Activity [12]: 20.74 g/day
- Activity [13]: 153.81 g
- Activity (Mus musculus [14]): Active
- Activity [15]: 34 mL
- Activity [16]: 176.24 g
- Activity (Mus musculus [17]): Active
- Activity [18]: Non-Toxic
- Activity [19]: 179.52 g
- inhibition [20]: Active
- Activity (3T3-L1): Active
- Activity (Mus musculus [21]): Active
- Activity [22]: 26 mL
- Activity (Mus musculus [23]): Active
- Activity [24]: Non-Toxic
- Activity [25]: 17.82 g/day
- Activity (Mus musculus [26]): Active
- Activity [27]: 20.79 g/day
- Activity [28]: 31 mL
